This assay deals with T1, recombinant N-terminal MLH1 (residues 15-340) (Homo sapiens, UniProt P40692).
T1 construct: recombinant N-terminal MLH1 (residues 15-340)
T1 sequence (P40692 15-340): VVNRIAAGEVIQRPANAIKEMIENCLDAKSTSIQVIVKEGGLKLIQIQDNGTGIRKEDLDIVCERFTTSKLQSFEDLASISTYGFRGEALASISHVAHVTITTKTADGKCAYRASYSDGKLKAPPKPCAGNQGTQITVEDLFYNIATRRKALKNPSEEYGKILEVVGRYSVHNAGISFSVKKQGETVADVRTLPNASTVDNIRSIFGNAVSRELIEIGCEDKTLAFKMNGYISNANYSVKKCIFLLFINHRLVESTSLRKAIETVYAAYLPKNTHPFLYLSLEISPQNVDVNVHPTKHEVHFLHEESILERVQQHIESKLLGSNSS
The assay is described as follows: Fluorescence Polarisation Assay for MLH1. Format: binding. The note with it: 100 nM N-terminal MLH1, 5 nM probe compound. The method, boiled down:
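Fluorescence polarisation displacement: 100 nM MLH1 (15-340) preincubated 30 min at room temperature with compound, then 5 nM rhodamine-labelled probe added and read immediately. Buffer 25 mM HEPES pH 7.5, 250 mM NaCl, 10 mM MgCl2, 0.01% Triton X-100, 5 mM DTT; normalised to no-inhibitor and no-enzyme controls.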
(In fluorescence polarisation assays a small probe gives low polarisation when free and higher when bound to something large.)

The structures appear in SMILES notation.

Consider `CN(C)CCOc1ccc2c(c1)CCN(C(=O)c1c(O)cc(F)cc1OCc1ccccc1)C2` [Example 10.24, (2-(Benzyloxy)-4-fluoro-6-hydroxyphenyl)(6-(2-(dimethylamino)ethoxy)-3,4-dihydroisoquinolin-2(1H)-yl)methanone], for which the IC50 lay within 1000 to 10000 nM. As for `N#Cc1cc(O)c(C(=O)N2Cc3cccc(NC4COC4)c3C2)c(OCc2ccccc2)c1` [Example 10.26, 3-(Benzyloxy)-5-hydroxy-4-(4-(oxetan-3-ylamino)isoindoline-2-carbonyl)benzonitrile], the 50% inhibitory concentration (IC50) was in the range of 100 to 1000 nM. Under `CN1CC[C@H](Nc2cccc3c2CN(C(=O)c2c(O)cc(C#N)cc2OCc2ccccc2)C3)C1=O` [Example 10.27, (S)-3-(Benzyloxy)-5-hydroxy-4-(4-((1-methyl-2-oxopyrrolidin-3-yl)amino)isoindoline-2-carbonyl)benzonitrile] stands 100 to 1000 nM; under `CN1CC[C@@H](Nc2cccc3c2CN(C(=O)c2c(O)cc(C#N)cc2OCc2ccccc2)C3)C1=O` [Example 10.28, (R)-3-(benzyloxy)-5-hydroxy-4-(4-((1-methyl-2-oxopyrrolidin-3-yl)amino)isoindoline-2-carbonyl)benzonitrile], 100 to 1000 nM; under `CN(C)CCOc1ccc2c(c1)CCN(C(=O)c1c(O)cc(C#N)cc1OCc1ccccc1)C2` [Example 10.29, 3-(Benzyloxy)-4-(6-(2-(dimethylamino)ethoxy)-1,2,3,4-tetrahydroisoquinoline-2-carbonyl)-5-hydroxybenzonitrile], 1000 to 10000 nM. Under `CN1CC[C@@H](Oc2ccc3c(c2)CN(C(=O)c2c(O)cc(C#N)cc2OCc2ccccc2)C3)C1` [Example 10.30, (R)-3-(Benzyloxy)-5-hydroxy-4-(5-((1-methylpyrrolidin-3-yl)oxy)isoindoline-2-carbonyl)benzonitrile] stands 100 to 1000 nM; under `CN1CC[C@H](Oc2ccc3c(c2)CN(C(=O)c2c(O)cc(C#N)cc2OCc2ccccc2)C3)C1` [Example 10.31, (S)-3-(Benzyloxy)-5-hydroxy-4-(5-((1-methylpyrrolidin-3-yl)oxy)isoindoline-2-carbonyl)benzonitrile], 100 to 1000 nM; under `CN1CC(Oc2ccc3c(c2)CN(C(=O)c2c(O)cc(C#N)cc2OCc2ccccc2)C3)C1` [Example 10.32, 3-(Benzyloxy)-5-hydroxy-4-(5-((1-methylazetidin-3-yl)oxy)isoindoline-2-carbonyl)benzonitrile], 100 to 1000 nM. Regarding `CN1CCC(Oc2ccc3c(c2)CN(C(=O)c2c(O)cc(C#N)cc2OCc2ccccc2)C3)CC1` [Example 10.33, 3-(Benzyloxy)-5-hydroxy-4-(5-((1-methylpiperidin-4-yl)oxy)isoindoline-2-carbonyl)benzonitrile], the IC50 is 100 to 1000 nM. As for `CN1CCN(Cc2ccc3c(c2)CN(C(=O)c2c(O)cc(C#N)cc2OCc2ccccc2)C3)CC1` [Example 10.34, 3-(Benzyloxy)-5-hydroxy-4-(5-((4-methylpiperazin-1-yl)methyl)isoindoline-2-carbonyl)benzonitrile], the IC50 lay in the range of 100 to 1000 nM. Turning to `COCCOc1ccc2c(c1)CN(C(=O)c1c(O)cc(C#N)cc1OCc1ccccc1)C2` [Example 10.35, 3-(Benzyloxy)-5-hydroxy-4-(5-(2-methoxyethoxy)isoindoline-2-carbonyl)benzonitrile], the IC50 lay in the range of 100 to 1000 nM. With `N#Cc1cc(O)c(C(=O)N2Cc3ccc(OC4CCOCC4)cc3C2)c(OCc2ccccc2)c1` [Example 10.36, 3-(Benzyloxy)-5-hydroxy-4-(5-((tetrahydro-2H-pyran-4-yl)oxy)isoindoline-2-carbonyl)benzonitrile], the IC50 was in the range of 100 to 1000 nM. Consider `CN1CC(Oc2ccc3c(c2)CN(C(=O)c2c(O)cc(C#N)cc2OCc2ccccn2)C3)C1` [Example 10.37, 3-Hydroxy-4-(5-((1-methylazetidin-3-yl)oxy)isoindoline-2-carbonyl)-5-(pyridin-2-ylmethoxy)benzonitrile], for which the IC50 fell in the range of 1000 to 10000 nM.

By IC50 is commonly meant the concentration needed to halve the response being measured.
